Here are results for two molecules from ChEMBL document CHEMBL3758105 (J Med Chem, 2016).

Structures are written as SMILES.

Data set [1] deals with Rattus norvegicus. As to the kind of experiment: Drug level in Sprague-Dawley rat treated with N-(4-Fluoro-3-methoxybenzyl)-6-(2-(((2S,5R)-5-(hydroxymethyl)-1,4-dioxan-2-yl)methyl)-2H-tetrazol-5-yl)-2-methylpyrimidine-4-carboxamide at 1 mg/kg, po. Format: ADME, organism-based. As to conditions: in vivo.
A further data set concerns the target Collagenase 3 (Homo sapiens, UniProt P45452). As to the kind of experiment: Inhibition of full length human recombinant MMP13 using MCA-Arg-Pro-Leu-Gly-Leu-Dpa-Ala-Arg-Glu-Arg-NH2 as substrate preincubated for 60 mins followed by substrate addition by fluorescence assay.
Data set [2] in a line: Drug level in cynomolgus monkey urine treated with N-(4-Fluoro-3-methoxybenzyl)-6-(2-(((2S,5R)-5-(hydroxymethyl)-1,4-dioxan-2-yl)methyl)-2H-tetrazol-5-yl)-2-methylpyrimidine-4-carboxamide. Format: ADME, tissue-based, Macaca fascicularis. The note with it: in vivo.
The subject of data set [3] is Cynomolgus monkey. As to the kind of experiment: Drug level in cynomolgus monkey treated with N-(4-Fluoro-3-methoxybenzyl)-6-(2-(((2S,5R)-5-(hydroxymethyl)-1,4-dioxan-2-yl)methyl)-2H-tetrazol-5-yl)-2-methylpyrimidine-4-carboxamide at 1 mg/kg, po. Format: ADME, organism-based, Macaca fascicularis. As to conditions: in vivo.
The nature of data set [4]: Drug level in cynomolgus monkey hepatocytes treated with N-(4-Fluoro-3-methoxybenzyl)-6-(2-(((2S,5R)-5-(hydroxymethyl)-1,4-dioxan-2-yl)methyl)-2H-tetrazol-5-yl)-2-methylpyrimidine-4-carboxamide. Type of data set: ADME, cell-based, Macaca fascicularis, Hepatocyte.
The subject of data set [5] is Hepatocyte. As to the kind of experiment: Drug level in human hepatocytes treated with N-(4-Fluoro-3-methoxybenzyl)-6-(2-(((2S,5R)-5-(hydroxymethyl)-1,4-dioxan-2-yl)methyl)-2H-tetrazol-5-yl)-2-methylpyrimidine-4-carboxamide. Format: ADME, cell-based.
The nature of data set [6]: Drug metabolism in cynomolgus monkey hepatocytes assessed as demethylation. Format: ADME, cell-based, Macaca fascicularis, Hepatocyte.
In a further data set the target is Cytochrome P450 2C9 (Homo sapiens, UniProt P11712). Briefly: Inhibition of CYP2C9 in human liver microsomes assessed as reduction of diclofenac metabolism after 8 mins. Type of data set: ADME.
Cytochrome P450 2C9, sequence (P11712 whole entry): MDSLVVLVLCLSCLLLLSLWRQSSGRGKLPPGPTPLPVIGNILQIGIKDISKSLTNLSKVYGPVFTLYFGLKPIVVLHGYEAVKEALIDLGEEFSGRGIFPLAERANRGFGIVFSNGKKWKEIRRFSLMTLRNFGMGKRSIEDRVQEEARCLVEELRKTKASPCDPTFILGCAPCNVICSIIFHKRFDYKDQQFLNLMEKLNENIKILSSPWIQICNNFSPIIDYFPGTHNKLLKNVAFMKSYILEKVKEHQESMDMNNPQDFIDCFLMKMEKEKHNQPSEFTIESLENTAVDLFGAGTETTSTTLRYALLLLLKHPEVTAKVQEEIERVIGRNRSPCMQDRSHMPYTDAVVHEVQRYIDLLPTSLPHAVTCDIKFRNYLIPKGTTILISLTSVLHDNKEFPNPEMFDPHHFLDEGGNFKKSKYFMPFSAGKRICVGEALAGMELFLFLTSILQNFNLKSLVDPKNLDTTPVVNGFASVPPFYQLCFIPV
The test system of data set [7] is Hepatocyte. As to the kind of experiment: Drug metabolism in human hepatocytes assessed as sulfate conjugation. Format: ADME, cell-based.
Data set [8] in a line: Oral bioavailability in Sprague-Dawley rat at 1 mg/kg. Format: ADME, organism-based. The note with it: in vivo.
Data set [9] concerns Hepatocyte. Briefly: Drug metabolism in human hepatocytes assessed as methyl oxidation. Format: ADME, cell-based.
The test system of data set [10] is Rattus norvegicus. Briefly: Drug metabolism in Sprague-Dawley rat assessed as (2S,5S)-5-((5-(6-((4-Fluoro-3-methoxybenzyl)carbamoyl)-2-methylpyrimidin-4-yl)-2H-tetrazol-2-yl)methyl)-1,4-dioxane-2-carboxylic acid formation at 1 mg/kg, po. The note with it: in vivo. Type of data set: ADME, organism-based.
The nature of data set [11]: Clearance in cynomolgus monkey at 1 mg/kg, po and iv. Type of data set: ADME, organism-based, Macaca fascicularis. As to conditions: in vivo.
Data set [12] deals with Cynomolgus monkey. As to the kind of experiment: Drug metabolism in cynomolgus monkey assessed as (2S,5S)-5-((5-(6-((4-Fluoro-3-methoxybenzyl)carbamoyl)-2-methylpyrimidin-4-yl)-2H-tetrazol-2-yl)methyl)-1,4-dioxane-2-carboxylic acid formation at 1 mg/kg, po. As to conditions: in vivo. Type of data set: ADME, organism-based, Macaca fascicularis.
Data set [13] is described as follows: Intrinsic clearance in human liver microsomes measured over 40 mins by HPLC/MS analysis. The note with it: read-out: CLH. Type of data set: ADME.
The nature of data set [14]: Drug metabolism in cynomolgus monkey hepatocytes assessed as glucuronidation. Format: ADME, cell-based, Macaca fascicularis, Hepatocyte.
Data set [15] in a line: Oral bioavailability in cynomolgus monkey at 1 mg/kg. Type of data set: ADME, organism-based, Macaca fascicularis. As to conditions: in vivo.
Data set [16] has as its system Cynomolgus monkey. Briefly: Nephrotoxicity in cynomolgus monkey at 50 to 1000 mg/kg/day, po administered for 14 days. Format: toxicity, organism-based, Macaca fascicularis. The note with it: in vivo, 336 h.
Data set [17] can be described thus: Drug metabolism in cynomolgus monkey hepatocytes assessed as methyl oxidation. Format: ADME, cell-based, Macaca fascicularis, Hepatocyte.
Data set [18] in a line: Drug metabolism in cynomolgus monkey urine assessed as methyl oxidation. Format: ADME, tissue-based, Macaca fascicularis.
The nature of data set [19]: Drug metabolism in cynomolgus monkey urine assessed as demethylation. Format: ADME, tissue-based, Macaca fascicularis.
Another data set deals with T1, Cytochrome P450 1A2 (Homo sapiens, UniProt P05177).
T1 sequence (P05177 whole entry): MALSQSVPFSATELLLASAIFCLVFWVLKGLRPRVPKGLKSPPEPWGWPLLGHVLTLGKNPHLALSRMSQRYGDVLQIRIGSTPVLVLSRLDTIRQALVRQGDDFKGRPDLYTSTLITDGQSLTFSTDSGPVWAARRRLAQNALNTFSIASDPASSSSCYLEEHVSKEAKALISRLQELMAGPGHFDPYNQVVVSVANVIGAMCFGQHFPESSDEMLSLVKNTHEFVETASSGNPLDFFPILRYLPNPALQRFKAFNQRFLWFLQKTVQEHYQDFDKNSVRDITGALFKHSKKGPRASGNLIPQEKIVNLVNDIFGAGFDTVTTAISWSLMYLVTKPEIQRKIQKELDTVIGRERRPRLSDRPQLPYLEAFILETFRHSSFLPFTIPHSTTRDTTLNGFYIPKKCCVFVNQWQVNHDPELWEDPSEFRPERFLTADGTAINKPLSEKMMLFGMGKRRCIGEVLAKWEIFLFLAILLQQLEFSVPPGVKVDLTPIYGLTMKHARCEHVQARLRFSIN
As to the kind of experiment: Inhibition of CYP1A2 (unknown origin). Type of data set: ADME.

A further data set has as its target Stromelysin-1 (Homo sapiens, UniProt P08254). As to the kind of experiment: Inhibition of MMP3 (unknown origin) catalytic domain using MCA-Arg-Pro-Leu-Gly-Leu-Dpa-Ala-Arg-Glu-Arg-NH2 as substrate preincubated for 60 mins followed by substrate addition by fluorescence assay.
In a further data set the target is Cytochrome P450 2D6 (Homo sapiens, UniProt P10635). As to the kind of experiment: Inhibition of CYP2D6 (unknown origin). Format: ADME.
Cytochrome P450 2D6, sequence (P10635 whole entry): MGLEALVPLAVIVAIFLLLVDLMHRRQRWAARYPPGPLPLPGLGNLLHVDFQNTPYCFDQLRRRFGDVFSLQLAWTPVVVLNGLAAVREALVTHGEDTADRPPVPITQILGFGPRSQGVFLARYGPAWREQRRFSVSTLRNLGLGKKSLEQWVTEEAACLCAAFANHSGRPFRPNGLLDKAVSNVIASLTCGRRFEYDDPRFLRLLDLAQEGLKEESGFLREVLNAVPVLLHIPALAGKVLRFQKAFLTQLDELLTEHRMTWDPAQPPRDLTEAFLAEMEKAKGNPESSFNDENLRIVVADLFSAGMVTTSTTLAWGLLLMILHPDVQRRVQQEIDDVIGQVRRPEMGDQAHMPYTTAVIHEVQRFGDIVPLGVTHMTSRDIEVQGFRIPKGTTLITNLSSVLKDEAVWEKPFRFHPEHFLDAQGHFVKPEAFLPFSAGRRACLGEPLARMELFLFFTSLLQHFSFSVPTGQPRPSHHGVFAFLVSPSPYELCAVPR
A short description of data set [20]: Drug metabolism in cynomolgus monkey urine assessed as (2S,5S)-5-((5-(6-((4-Fluoro-3-methoxybenzyl)carbamoyl)-2-methylpyrimidin-4-yl)-2H-tetrazol-2-yl)methyl)-1,4-dioxane-2-carboxylic acid formation. Format: ADME, tissue-based, Macaca fascicularis.
A short description of data set [21]: Drug metabolism in cynomolgus monkey urine assessed as sulfate conjugation. Type of data set: ADME, Macaca fascicularis.
Data set [22] in a line: Drug metabolism in cynomolgus monkey hepatocytes assessed as (2S,5S)-5-((5-(6-((4-Fluoro-3-methoxybenzyl)carbamoyl)-2-methylpyrimidin-4-yl)-2H-tetrazol-2-yl)methyl)-1,4-dioxane-2-carboxylic acid formation. Format: ADME, cell-based, Macaca fascicularis, Hepatocyte.
Data set [23] concerns Hepatocyte. As to the kind of experiment: Drug metabolism in human hepatocytes assessed as (2S,5S)-5-((5-(6-((4-Fluoro-3-methoxybenzyl)carbamoyl)-2-methylpyrimidin-4-yl)-2H-tetrazol-2-yl)methyl)-1,4-dioxane-2-carboxylic acid formation. Type of data set: ADME, cell-based.
Data set [24] relates to Hepatocyte. As to the kind of experiment: Drug metabolism in human hepatocytes assessed as demethylation. Format: ADME, cell-based.
In the next data set the target is Cytochrome P450 3A4 (Homo sapiens, UniProt P08684). As to the kind of experiment: Inhibition of CYP3A4 (unknown origin). Format: ADME.
Cytochrome P450 3A4, sequence (P08684 whole entry): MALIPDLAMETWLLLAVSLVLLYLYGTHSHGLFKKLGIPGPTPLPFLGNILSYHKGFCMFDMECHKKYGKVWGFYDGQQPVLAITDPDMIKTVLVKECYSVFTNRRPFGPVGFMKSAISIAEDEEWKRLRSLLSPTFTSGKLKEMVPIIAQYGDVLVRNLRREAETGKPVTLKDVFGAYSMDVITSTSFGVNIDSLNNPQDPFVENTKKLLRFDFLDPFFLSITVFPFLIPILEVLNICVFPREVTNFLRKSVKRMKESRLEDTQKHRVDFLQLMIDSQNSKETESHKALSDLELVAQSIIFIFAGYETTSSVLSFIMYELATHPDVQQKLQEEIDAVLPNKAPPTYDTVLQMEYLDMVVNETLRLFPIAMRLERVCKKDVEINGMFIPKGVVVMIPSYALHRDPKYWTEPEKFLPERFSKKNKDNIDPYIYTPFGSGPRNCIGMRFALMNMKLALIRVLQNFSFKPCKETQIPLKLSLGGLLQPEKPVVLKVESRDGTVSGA
Data set [25] can be described thus: Drug metabolism in cynomolgus monkey urine assessed as glucuronidation. Type of data set: ADME, tissue-based, Macaca fascicularis.
The nature of data set [26]: Drug metabolism in cynomolgus monkey hepatocytes assessed as sulfate conjugation. Type of data set: ADME, cell-based, Macaca fascicularis, Hepatocyte.
A short description of data set [27]: Oral bioavailability in beagle dog at 1 mg/kg. Type of data set: ADME, organism-based, Canis lupus familiaris. As to conditions: in vivo.
The nature of data set [28]: Clearance in Sprague-Dawley rat at 1 mg/kg, iv administered as bolus dose by LC-MS/MS analysis. The note with it: in vivo. Type of data set: ADME, organism-based.
A short description of data set [29]: Clearance in beagle dog at 1 mg/kg, po and iv. Type of data set: ADME, organism-based, Canis lupus familiaris. As to conditions: in vivo.
Data set [30] relates to Hepatocyte. As to the kind of experiment: Drug metabolism in human hepatocytes assessed as glucuronidation. Type of data set: ADME, cell-based.

Stromelysin-1, sequence (P08254 whole entry, the tested form may be a part): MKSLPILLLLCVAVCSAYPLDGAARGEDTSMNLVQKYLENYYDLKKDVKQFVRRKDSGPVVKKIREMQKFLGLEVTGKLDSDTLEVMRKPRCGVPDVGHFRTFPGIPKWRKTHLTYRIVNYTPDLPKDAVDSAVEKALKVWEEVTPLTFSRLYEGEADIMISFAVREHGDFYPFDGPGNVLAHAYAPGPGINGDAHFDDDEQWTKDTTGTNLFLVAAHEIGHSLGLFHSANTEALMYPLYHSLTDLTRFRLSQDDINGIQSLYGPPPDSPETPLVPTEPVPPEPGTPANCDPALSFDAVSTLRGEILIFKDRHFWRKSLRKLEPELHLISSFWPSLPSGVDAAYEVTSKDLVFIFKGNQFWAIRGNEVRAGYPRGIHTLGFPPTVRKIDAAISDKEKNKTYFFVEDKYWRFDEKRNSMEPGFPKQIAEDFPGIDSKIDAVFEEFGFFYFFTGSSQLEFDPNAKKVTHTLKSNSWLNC

Turning to `COc1cc(CNC(=O)c2cc(-c3nnn(C[C@H]4CO[C@H](C(=O)O)CO4)n3)nc(C)n2)ccc1F`, the Drug metabolism result (in the data set on Rattus norvegicus [1]; in data set [2]; with Cynomolgus monkey [3]; in data set [4]; with Hepatocyte [5]) was “metabolite_detected” throughout. In addition, the Ki at Collagenase 3 stood at 0.2 nM.

Take `COc1cc(CNC(=O)c2cc(-c3nnn(C[C@H]4CO[C@H](CO)CO4)n3)nc(C)n2)ccc1F`: the Drug metabolism result (in [6]; with Hepatocyte [7]; in the data set on Hepatocyte [9]; with Rattus norvegicus [10]; in the data set with Cynomolgus monkey [12]; in data set [14]) was “metabolite_detected” in each case. The Drug metabolism result in data set [17], in data set [18], in [19], in [20], in data set [21] and in data set [22] was “metabolite_detected” in each case. In addition, the Drug metabolism entry (in the data set on Hepatocyte [23]; with Hepatocyte [24]; in data set [25]; in [26]; in the data set with Hepatocyte [30]) was “metabolite_detected” in each case. The IC50 at Cytochrome P450 2C9, on Cytochrome P450 1A2, on Cytochrome P450 2D6 and on Cytochrome P450 3A4 was > 30 µM throughout. The bioavailability in data set [8] was determined as 95%; in [15], 88%; in data set [27], 64%. The clearance in data set [11] was 2.1 mL/min/kg; in data set [28], 18.2 mL/min/kg; in data set [29] it was 8.2 mL/min/kg. Further, the Ki was 1.5 nM at Collagenase 3 and > 10 µM at Stromelysin-1. Also, in data set [13], the microsomal CLint was < 8 µL/min/mg. In the data set with Cynomolgus monkey [16], the Activity entry was “Non-toxic”.
